Measured values from patent publication US12171787B2, “Methods and compositions for modulating angiogenesis and vasculogenesis” (SanBio, Inc., priority 2012, dated 2024).

Legend:
aortic rings = assay: Aortic ring assay (vessel outgrowth and branching); type: cell-based, Sprague-Dawley rats; conditions: 50 nM SU5416, rat aortic rings, 10 days
Source text: Restoration of vasculature after ischemic injury requires that surviving endothelial cells receive signals that prompt their migration and invasion. Such signals may arise from vascular smooth muscle cells, monocytes, and/or macrophages, among others. To test for secretion of factors involved in vessel sprouting and branching, the aortic ring assay was used. See, for example, Nicosia & Ottinetti (1990) Lab. Invest. 63:115-122 and Nicosia (2009) J. Cell. Mol. Med. 13:4113-4136.
For preparation of aortic rings, adult Sprague-Dawley rats were euthanized prior to dissection. After clamping off its two ends, the aorta was removed and placed in ice-cold α-MEM/pen-strep medium prior to removal of the external adipose layer. Adipose-free aorta was rinsed twice with ice-cold EBM-2/pen-strep medium before being sectioned into rings of 1.0 mm thickness. […]
To assess the angiogenic activity of MSC- and SB623-derived factors, phase contrast photographs were taken on Day 10, and results were quantified by an experimenter blinded to the group, by counting vessel outgrowth and branching. Growth of new vessels was quantitated by measuring the number of vessels growing out from the ring; and vessel branching was quantitated by measuring the number of branchpoints present in vessels growing out from the aortic ring. […]

[1] = test system: human umbilical vein endothelial cells (HUVECs); assay: HUVEC proliferation: fraction of Ki67-expressing cells by flow cytometry; type: cell-based; conditions: 50 nM SU5416 + SB623 cell conditioned medium, five days
Procedure: Ki67 is a protein present in cells exiting from the GO (quiescent) phase of the cell cycle; therefore Ki67 levels can be used as a measure of cell proliferation. The fraction of cells expressing Ki67 protein was measured in HUVECs that had been starved for serum and growth factors, then cultured with conditioned medium from either MSCs or SB623 cells.
For Ki67 measurement, HUVECs were cultured and exposed to CM as described in Example 2. Cells were fixed in 4% paraformaldehyde and permeabilized with 0.1% Triton-X100 for one hour. Following permeabilization, cells were stained for one hour on ice with fluorescein-conjugated anti-KI67 antibody, then samples were washed, acquired, and analyzed on the FL-1 channel of a BD FACSCalibur. Cells exposed to fluorescein-conjugated IgG were used as a negative control. For these assays, 3 different human donor pairs were tested.
The effect of the VEGF receptor inhibitor on stimulation of HUVEC proliferation by SB623 cell factors was also assessed. Assays for expression of Ki67 were conducted as described in Example 3, except that 50 nM SU5416 was added to cultures 30 minutes before addition of conditioned medium, and cells were cultured for five days, instead of seven, before assay.

[2] = test system: human umbilical vein endothelial cells (HUVECs); assay: HUVEC survival: fraction of Bcl-2-expressing cells by flow cytometry; type: cell-based; conditions: 50 nM SU5416 + SB623 cell-conditioned medium, five days, vs SB623 CM alone
Procedure: (§1) Cerebral ischemia can result in loss of nutrient supply to the affected area. To determine if soluble factors from SB623 cells and MSCs have restorative effects on nutrient-deprived endothelial cells, human umbilical vein endothelial cells (HUVECs) were cultured in medium depleted of serum and growth factors for 24 hours, then exposed to conditioned medium (CM) from MSCs or SB623 cells. Control cultures remained in serum- and growth factor-depleted medium without addition of CM. Viability and proliferative capacity of the HUVECs were then assessed.
For these experiments, human umbilical vein endothelial cells were passed twice, then 7.5×10^5 cells were plated in EBM-2/ECGS medium (Endothelial Basal Medium-2/Endothelial Cell Growth Supplements; Lonza, Walkersville, MD) on T-75 flasks coated with 0.1% gelatin and cultured for 24 hours. […] Effects of CM were then assessed by withdrawing 6 ml of medium from each flask, and replacing it with 6 ml fresh OptiMEM (control), 6 ml MSC conditioned medium, or 6 ml SB623 cell conditioned medium (conditioned media prepared as described in Example 1). […]
Bcl-2 is an anti-apoptotic protein originally identified as being overexpressed in certain B-cell lymphomas. Accordingly, the fraction of cells expressing the Bcl-2 protein was measured in serum/growth factor-starved HUVECs as an indicator of their apoptotic potential. […]

HUVECs = assay: HUVEC tube formation assay; type: cell-based, human
Source text: A HUVEC tube formation assay was used to test the ability of MSCs and SB623 cells to elaborate factors that stimulate vessel formation. See, for example, E J Smith & C A Staton, “Tubule formation assays,” in Angiogenesis Assays—A Critical Appraisal of Current Techniques, (Staton, Lewis & Bicknell, eds.). John Wiley & Sons, Ltd., West Sussex, UK, pp. 65-87, 2006; and Goodwin (2007) Microvasc. Res. 74:172-183.
HUVECs were passed five times in EBM-2/ECGS medium, then transferred to alpha-MEM/0.5% FBS/2 mM glutamine/pen-strep, at a density of 1×10^5 cells/ml. After 24 hours, HUVECs were harvested using 0.25% trypsin-EDTA, rinsed, and resuspended in α-MEM/2 mM glutamine/pen-strep at a density of 1×10^5 cells/ml. A mixture of 75 ul of HUVECs plus 75 ul of either MSC- or SB623-conditioned medium (Example 1), or 75 ul OptiMEM medium as a negative control, was added to each well of a 96-well plate that had been pre-treated by adding 50 ul of Reduced Growth Factor (RGF)-basement gel (Invitrogen, Carslsbad, CA) per well and incubating the plates at 37° C. for 45 minutes. For this assay, MSCs were obtained from 3 different human donors, and a portion of the MSCs from each donor were converted to SB623 cells.
After 16 hours, the cultures were examined by phase contrast microscopy and photographed. The number of complete tubes (formed by contiguous cells) was quantified by an experimenter blinded to the group. […] Thus, MSCs and SB623 cells secrete factors that promote vasculogenesis.
HUVEC tube formation assays with conditioned medium from MSCs and SB623 cells were conducted as described in Example 4, in the presence and absence of the VEGF2 receptor inhibitor SU5416.
Quantitation of tube formation was conducted, as described in Example 4, for HUVECs exposed to SB623 cell conditioned medium in the presence and absence of SU5416, at 16 and 40 hours after plating.

[3] = test system: human umbilical vein endothelial cells (HUVECs); assay: HUVEC survival: propidium iodide staining of serum/growth factor-starved HUVECs; type: cell-based; conditions: 50 nM SU5416 + SB623 cell-conditioned medium, five days, vs SB623 CM alone
Procedure: as §1
For these experiments, human umbilical vein endothelial cells were passed twice, then 7.5×10^5 cells were plated in EBM-2/ECGS medium (Endothelial Basal Medium-2/Endothelial Cell Growth Supplements; Lonza, Walkersville, MD) on T-75 flasks coated with 0.1% gelatin and cultured for 24 hours. The HUVEC monolayers were rinsed twice with warm PBS and incubated with 12 ml of fresh EBM-2 medium overnight at 37° C., 5% CO2. Effects of CM were then assessed by withdrawing 6 ml of medium from each flask, and replacing it with 6 ml fresh OptiMEM (control), 6 ml MSC conditioned medium, or 6 ml SB623 cell conditioned medium (conditioned media prepared as described in Example 1). […]
To quantify cell death, cells were stained with propidium iodide (PI), since dead cells are permeable to PI. […]

Row | Molecule | vessel outgrowth and branching in SB623 cell-conditioned medium plus inhibitor (aortic rings) | effect on enhancement of HUVEC proliferation (Ki67) by SB623 conditioned medium [1] | Bcl-2 expression by HUVECs in SB623 conditioned medium plus inhibitor [2] | effect on positive effect of SB623 CM on tube formation (quantitation) (HUVECs; 50 nM SU5416, 16 and 40 hours after plating) | effect on stimulation of tube formation by VEGF, MSC-CM and SB623-CM (HUVECs; 50 nM SU5416, 16 hours) | propidium iodide uptake by HUVECs in SB623 conditioned medium plus inhibitor [3] | tube formation by HUVECs (positive control) (HUVECs; 10 ng/ml VEGF, 16 hours)
1 | Cc1cc(C)c(/C=C2\C(=O)Nc3ccccc32)[nH]1 [SU5416] | reduced | partially reversed | fewer cells express | completely reversed | reduces the stimulation of tube formation | more cells take up PI | –
2 | VEGF | – | – | – | – | – | – | promote tube formation
